This is an account of results in publication PMC3209502 (European journal of pharmacology, 2011).

One series deals with Sprague Dawley Rats. The series is described as follows: Locomotor activity test. The settings on record: 5 mg/kg i.p., measured 0.5 h from 1 h post injection, vs vehicle. Format: in vivo, rat.
The next series deals with male Sprague Dawley rats. The series is described as follows: Rat forced swimming test. Particulars: 15 mg/kg i.p., 30 min pretreatment, vs vehicle. Type of series: in vivo.
The test system of another series is C57Bl/6 mice. The series is described as follows: Mouse tail suspension test. Particulars: 15 mg/kg, 30 min before testing, vs vehicle. Format: in vivo.

In the case of `Fc1ccc(C(OCCN2CCN(CCCc3ccccc3)CC2)c2ccc(F)cc2)cc1` [GBR 12909, 1-[2-[bis(4-fluorophenyl)methoxy]ethyl]-4-[3-phenylpropyl]piperazine], the “locomotor activity (horizontal activity, HACTV)” value in the series with Sprague Dawley Rats is on record as “significant rise”.

As to `CN(C)CCCN1c2ccccc2CCc2ccccc21` [imipramine, Imipramine], the “duration of immobility in the forced swimming test” value in the series on male Sprague Dawley rats is “produced a reduction in immobility”. The “immobility of mice in the tail suspension test” value in the series on C57Bl/6 mice is “significantly different compared to vehicle”.
